Type in all cases: ADME, organism-based
What all share (parameters): dose 200 mg, route oral

Series [1] can be described thus: (§1) The pharmacokinetic parameters of Itraconazole after single oral administration of 200 mg Itraconzole to 9 male and 9 female healthy subjects in fasting and in fed conditions. Conditions: both, human, in vivo, dietary status Fed, dosed compound id 2, dosed compound name ITRACONAZOLE, gender male and female, regimen Single dose, tissue Plasma.
For series [2], the system named is Homo sapiens. Described as §1. Conditions: in vivo, po, dietary status Fasted, dosed compound id 2, dosed compound name ITRACONAZOLE, gender male and female, regimen Single dose, tissue Plasma.
Series [3] can be described thus: (§2) The steady-state pharmacokinetics of itraconazole analyzed after multiple oral dosing of 16 healthy volunteers with 200 mg Itraconazole following a moderate-fat breakfast once daily for 14 days in an open-label study. Conditions: human, in vivo, dietary status Fed with moderate-fat breakfast, dose 200 mg, dosed compound id 2, dosed compound name ITRACONAZOLE, gender male and female, regimen Multiple dose, route oral, tissue Plasma.

Series [4] has as its system Homo sapiens. Described as §2. Conditions: in vivo, po, 336 h, dietary status Fed with moderate-fat breakfast, dosed compound id 2, dosed compound name ITRACONAZOLE, gender male and female, regimen Multiple dose, tissue Plasma.

We go through 1 compound from ChEMBL document CHEMBL3832544, “DailyMed|setid=fb8a2e5b-fd23-4977-81de-a95f4af168e2 | ONMEL- itraconazole tablet|Merz Pharmaceuticals, LLC”.

As a reminder, the Cmax is the maximum level reached in the sampled fluid or tissue. As usually defined, the AUC is concentration integrated over time. The Tmax is the time from dosing to the highest level. As a reminder, the AUC(0-inf) is total exposure, with the tail of the curve extrapolated. A lower AUC(0-inf) goes with low exposure.

As for `CCC(C)n1ncn(-c2ccc(N3CCN(c4ccc(OCC5COC(Cn6cncn6)(c6ccc(Cl)cc6Cl)O5)cc4)CC3)cc2)c1=O` (configuration not stated) [ITRACONAZOLE], the Cmax amounted to 213 ng/mL in series [1] (po, 200 mg) and 162 ng/mL in series [2]. The AUC in series [1] (po, 200 mg, read-out: AUC(0-inf)) was 3340 ng·h/mL. The Tmax in series [1] (dose 200 mg, route oral) amounted to 4.6 h; in series [2] (dose 200 mg), 2.9 h; in series [3] (study dosing duration 1 day), 4 h. The “AUC(0-inf)” value in series [2] was 2270 ng·h/mL. The half-life in series [3] (study dosing duration 14 day, read-out: t1/2 ss (converted)) is 36.8 h. For the same compound, the “AUC(0-24)” value in series [4] (study dosing duration 1 day) was 905.09 ng·h/mL; in series [4] (study dosing duration 14 day), 9046.81 ng·h/mL. The Cmax ss in series [4] (study dosing duration 1 day) amounted to 116.8 ng/mL; in series [4] (study dosing duration 14 day), 658.1 ng/mL.
